The text below walks through data of patent publication EP4542231A1, “METHODS FOR IDENTIFYING AND STRATIFYING CANCERS AND CANCER PATIENTS BASED ON P2X4 RECEPTOR EXPRESSION” (Johann-Wolfgang-Goethe-Universität Frankfurt am Main, priority 2023, dated 2025).

Molecules are shown by their SMILES.

Data set [1] deals with ATP-induced S6 phosphorylation in PDTOs. The conditions noted are these: selective P2X4, P2X1 or P2X7 inhibition; cited from earlier work.
The subject of data set [2] is human CRC tumor organoids. The conditions noted are these: organoids that express P2X4 (CRC-organoid #1); previously shown, Schmitt et al, Nature, 2022; cited from earlier work.
In data set [3] the test system is human CRC tumor organoids. The data set can be described thus: Survival of human CRC tumor organoids in response to 5-FU in the absence or presence of 5-BDBD. Type of data set: cell-based. The following applies: colorectal cancer organoids that do not express P2X4 protein; 5-FU +/- P2X4 inhibitor (Fig. 3C). The source says:
(§1) Survival of SU-DHL5 cells in response to doxorubicin in the absence or presence of 5-BDBD (B). Survival of human CRC tumor organoids in response to 5-FU in the absence or presence of 5-BDBD (C).
(§2) The inventors had previously shown that blocking P2X4 would sensitize organoids to 5-FU treatment (Schmitt et al, Nature, 2022). The inventors now confirmed that these organoids indeed express P2X4 (Fig. 3A, CRC-organoid #1).

Another data set relates to SU-DHL5 lymphoma cells. The data set can be described thus: Survival of SU-DHL5 cells in response to doxorubicin in the absence or presence of 5-BDBD. The conditions noted are these: lymphoma cells that do not express P2X4 protein; doxorubicin +/- 5-BDBD (Fig. 3B). Type of data set: cell-based.
Text: as §1, §2

As for `O=C1CN=C(c2cccc(Br)c2)c2oc3ccccc3c2N1` [5-BDBD, 5-(3-Bromophenyl)-1,3-dihydro-2H-Benzofuro[3,2-e]-1,4-diazepin-2-one], in data set [1], the “ATP-induced S6 phosphorylation” value was “reduced”. For the same compound, the “sensitization of organoids to 5-FU treatment” value in data set [2] is listed as “sensitize”. The “sensitization towards P2X4 inhibition” value (in data set [3]; in the data set on SU-DHL5 lymphoma cells) was “no sensitization” each time.
As for `O=C(Nc1ccc(C(=O)Nc2ccc(C(=O)Nc3ccc(S(=O)(=O)O)c4cc(S(=O)(=O)O)cc(S(=O)(=O)O)c34)cc2)cc1)Nc1ccc(C(=O)Nc2ccc(C(=O)Nc3ccc(S(=O)(=O)O)c4cc(S(=O)(=O)O)cc(S(=O)(=O)O)c34)cc2)cc1` [NF279], the “ATP-induced S6 phosphorylation” value in data set [1] is “no effect”.
For the compound `Clc1cccc(-c2nnnn2Cc2cccnc2)c1Cl` [A-438079], in data set [1], the “ATP-induced S6 phosphorylation” value was “no effect”.
